How the values were obtained:
[1] = test system: primary human dermal fibroblasts (HDF); assay: Fibroblast proliferation assay (2D) in the presence of wound exudate; assay type: cell-based
Description: Primary human dermal fibroblasts (HDF) were purchased from CELLnTEC, Bern. They were routinely grown in Dulbecco's modified Eagle's medium (DMEM) containing 10% FCS, 2 mM glutamine, and 100 U/ml penicillin/100 μg/ml streptomycin. Media, antibiotics, and glutamine were bought from Lonza. The cells were used at passage 5-15. Cells were trypsinized and seeded at 2500 cells/well in 30 μl into the inner wells of 384-well plates in the absence or presence of graded compound concentrations with or without different dilutions of sterile-filtered WE in medium. For control samples, 30 μl medium was added instead of specific stimuli. The outer wells were loaded with sterile water. The cells were incubated for 72 hours at 37° C.
At the end of the incubation period, supernatants were removed for the determination of IL-1β, and the cells were fixed with 4% paraformaldehyde (Morphisto) for 15 minutes at room temperature and washed 3 times with PBS. A control plate was fixed after the overnight adherence of the cells (day 1) to determine the starting cell number.
Total cellular protein was determined as a measure of cell number by staining the fixed cells with sulforhodamine B (SRB, Sigma). A 0.4% SRB solution in 1% acetic acid was added to the wells for 30 minutes. The wells were then washed with 1% acetic acid until the wash solution remained colorless. After drying, the dye was eluted with 10 mM Tris-HCl, pH8.5, and absorbance was measured either at 550 or 492 nm for lower and higher cell densities, respectively. The average absorbance of the sample representing the day 1 starting cell number was subtracted from the absorbance values of the WE-treated cells.
All experiments were carried out in triplicate for each sample and concentration, and means±standard deviation (SD) were used for the evaluation of the experiment. Results are expressed as percentage of control values for unstimulated cells.

IL1β = assay: mRNA expression in fibroblast cultures (qRT-PCR): IL-1β; assay type: cell-based, human
Description: (§1) Cells were seeded into 24-well plates and incubated with compounds in the presence or absence of wound exudates for 72 hours. Total RNA was isolated using the RNeasy Mini Kit (QIAGEN #74106) according to the manufacturer's protocol. RNA integrity and concentration for each sample was confirmed and measured with the Qubit fluorometer. Each RNA sample was then diluted to 2 ng/μl in nuclease-free doubly distilled water.
20 ng of total RNA were reverse-transcribed into cDNA and immediately subjected to PCR amplification using the SuperScript Ill Platinum One-Step Quantitative RT-PCR System with ROX (Invitrogen #11745). qRT-PCR amplifications were performed in 20 μl reactions containing 9 μl 2× Reaction Mix with ROX, 0.4 μl SuperScript III RT/Platinum Taq Mix and 1 μl primer (final: 900 nM, Taqman Gene Expression Assay, Applied Biosystems) […]
(§2) The house keeping gene elongation factor 1a (EF1a) was used as a reference gene. Normalized expression was calculated using the comparative Ct (or ΔCt) method, and fold changes were derived from the 2-ΔΔCt values for each gene. Graphs were prepared using relative Ct values that were calculated by subtracting the EF1a Ct values from the corresponding Ct values for the gene being measured.

IL-8 = assay: U937 cell stimulation assay (LPS-induced IL-8); assay type: cell-based, human; conditions: LPS 100 ng/ml, 16 hours (FIG. 16A)
Description: The human monocytic cell line U937 (ATCC CRL 1593) was routinely grown in RPMI_1640 supplemented by 10% FCS and 2 mM glutamine, and 100 U/ml penicillin/100 μg/ml streptomycin. Cells were seeded at 4×10^5/ml in 50 μl/well of a 384-well plate and combined cells with graded concentrations of test compounds and LPS at 100 ng/ml. After 16 hours, the supernatants were transferred to fresh plates and frozen at −20° C. for IL-8 analysis, using a commercial ELISA kit.

[2] = test system: full-thickness excisional wounds; assay: Delayed wound healing in a pig model; assay type: in vivo
Description: The animal experiments were approved by governmental authorities. Two young farm pigs (10-12 kg) were anesthetized and full-thickness excisional wounds were developed using a 6 mm biopsy punch. During the first 5 days after wounding, the wounds were stimulated with a) 0.05% R848 (resiquimod) and 50 μl human wound exudate, b) 0.05% R848 and human serum or c) human serum alone. R848 was applied in the mornings and exudate and serum 6 hours later, in 50 μl of solutions gelified by the addition of 2% HPMC. On days 6-10, wounds were treated once daily with mapracorat or vehicle (50% PG/47.5% H2O/0.5% Tween 80/2% HPMC). The wounds were clinically scored daily. The total wound score (maximum score=21) consisted of wound appearance (dry vs. moist), size, wound content, pus, crust, erythema intensity, erythema width, swelling and necrosis. Reported values are individual values for each of the 2 pigs.

Collagen 3a = assay: mRNA expression in fibroblast cultures (qRT-PCR): collagen 3; assay type: cell-based, human; conditions: WE-1, graded concentrations, 72-hour incubation (FIG. 7A)
Description: as §1
20 ng of total RNA were reverse-transcribed into cDNA and immediately subjected to PCR amplification using the SuperScript Ill Platinum One-Step Quantitative RT-PCR System with ROX (Invitrogen #11745). qRT-PCR amplifications were performed in 20 μl reactions containing 9 μl 2× Reaction Mix with ROX, 0.4 μl SuperScript III RT/Platinum Taq Mix and 1 μl primer (final: 900 nM, Taqman Gene Expression Assay, Applied Biosystems)
The program included 30 minutes of reverse transcription at 48° C., an initial denaturation for 5 minutes at 95° C. followed by 40 cycles of denaturation at 95° C. for 15 seconds and annealing at 60° C. for 60 seconds. Reactions were set up in 96-well format PCR plates (Peqlab #732-2879) and carried out in a Mx3005P Real-Time PCR Detection System (Stratagene).
TaqMan Gene Expression Assays (Applied Biosystems) were used, which include preoptimized probe and primer sets specific for the genes being validated. The sequences and ID numbers are listed below:
as §2

Cc1ccc2c(NC[C@](O)(CC(C)(C)c3cc(F)cc4c3OCC4)C(F)(F)F)cccc2n1 [Mapracorat]
effect on fibroblast proliferation in the presence of >80 human wound exudates ([1]; >80 human wound exudates from chronic wound patients): > 120% | fibroblast proliferation (2D) with wound exudate ([1]; WE-4 (FIG. 5), graded concentrations): dose-dependently reversed inhibition of wound exudate (WE)-induced fibroblast proliferation | IL-1β mRNA expression (IL1β; WE-1, graded concentrations, 72-hour incubation (FIG. 8A)): dose-dependently inhibited IL-1β mRNA expression in the presence of WE | IL-1β mRNA expression (IL1β; medium in the absence of WE, 72-hour incubation (FIG. 8B)): no IL-1β induction in medium | LPS-induced IL-8 secretion in U937 cells (IL-8): inhibited both LPS-induced and spontaneous IL-8 secretion | total wound score ([2]; 10 mM and 1 mM, once daily days 6-10, WE-01, WE-02 and R848 as inducers of delayed wound healing): reduced the wound score from days 6 to 12 | healing of control wounds ([2]; control wounds in the presence of human serum (FIG. 13D)): did not have any negative effect on the healing of control wounds | collagen 3 mRNA expression (Collagen 3a): at all three concentrations enhanced collagen 3 mRNA expression in the presence of WE

Reference: patent publication US12496304B2, “Selective glucocorticoid receptor modifiers for treating impaired skin wound healing” (AKRIBES BIOMEDICAL GMBH, priority 2019, dated 2025)
